We go through 14 compounds from ChEMBL document CHEMBL3112456, “Dual inhibition of HCV and HIV by ring-expanded nucleosides containing the 5:7-fused imidazo[4,5-e][1,3]diazepine ring system. In vitro results and implications” (Bioorg Med Chem Lett, 2014).

The IC50 is the concentration at which inhibition is half-maximal.

Data set [1] deals with Hepacivirus hominis. Put plainly: Inhibition of helicase activity of HCV NTPase/helicase using radio-labelled double-stranded DNA as substrate up to 300 ug/ml after 30 mins.
In data set [2] the test system is Hepacivirus hominis. Put plainly: Inhibition of helicase activity of HCV NTPase/helicase using radio-labelled double-stranded RNA as substrate up to 300 ug/ml after 30 mins.
Data set [3] relates to Hepatitis C virus. Put plainly: Antiviral activity against HCV infected in human Huh7 cells assessed as reduction in RNA level by luciferase reporter gene assay relative to control. The format is functional.
The test system of data set [4] is Human immunodeficiency virus. Put plainly: Antiviral activity against HIV. It is filed as functional, organism-based.
The subject of data set [5] is Hepatitis C virus. Put plainly: Antiviral activity against HCV genotype 1b infected in human BM4-5 cells reduction in RNA level after 5 days by luciferase reporter gene assay relative to control. The format is functional, organism-based, Hepacivirus hominis. As to conditions: BM4-5, 120 h.
Data set [6] concerns Hepacivirus hominis. Put plainly: Inhibition of helicase activity of HCV NTPase/helicase using radio-labelled double-stranded RNA as substrate after 30 mins.
The subject of data set [7] is Hepacivirus hominis. Put plainly: Inhibition of NTPase activity of HCV NTPase/helicase using 105 microM gamma-[32P]ATP as substrate up to 0.7 mM after 30 mins.
Data set [8] can be described thus: Cytotoxicity against human BM4-5 cells after 5 days by Neutral Red dye assay. The format is cell-based. As to conditions: bm4-5, 120 h.
A short description of data set [9]: Inhibition of helicase activity of HCV NTPase/helicase using radio-labelled double-stranded DNA as substrate after 30 mins. Further details: species or system Hepacivirus hominis.
Data set [10] can be described thus: Selectivity index, ratio of beta-actin level in human HuH7 cells to viral RNA level in HCV infected in human Huh7 cells. Further details: species or system Huh-7.
Data set [11] concerns Hepacivirus hominis. Put plainly: Inhibition of NTPase activity of HCV NTPase/helicase using 1 x 10^-5 M gamma-[32P]ATP as substrate up to 0.7 mM after 30 mins.
The subject of the next data set is Huh-7. Put plainly: Cytotoxicity against human HuH7 cells assessed as beta-actin levels relative to control. The format is cell-based.

The structures appear in SMILES notation. Values after ≈ are worked out from the molar mass of the structure shown. Active and inactive are the calls of the source. The rule behind the calls is not given here.

`CCCCCCCCCCNc1nc(=O)c2ncn([C@@H]3O[C@H](CO)[C@@H](O)[C@H]3O)c2c(=O)[nH]1`: the inhibition result in the data set on Hepacivirus hominis [1] and with Hepacivirus hominis [2] was “inactive” each time.
For the compound `CCCCCCCCCCCCCCNc1nc(=O)c2ncn([C@@H]3O[C@H](CO)[C@@H](O)[C@H]3O)c2c(=O)[nH]1`, the inhibition result with Hepacivirus hominis [1] and in the data set with Hepacivirus hominis [2] was “inactive” in each case.
Regarding `CCCCCCCCCCCCCCCCCCN`, the Activity result in the data set on Hepatitis C virus [3] (Hepacivirus hominis, Huh-7) was “inactive”; in data set [4] it was “inactive”.
On to `CCCCCCCCCCCCCCN`, for which the Activity entry with Hepatitis C virus [3] (Hepacivirus hominis, Huh-7) is “inactive”; in data set [4] it was “inactive”.
On to `CCCCCCCCCCCCCCCCCCNc1nc(=O)c2ncn([C@@H]3C[C@H](O)[C@@H](CO)O3)c2c(=O)[nH]1`, for which the Activity in the data set with Hepatitis C virus [3] is 10%; in data set [8] it was “Non-toxic”; in the data set with Huh-7, 99%. The half-maximal inhibitory concentration (IC50) with Hepatitis C virus [5] turned out to be 18 µM; in data set [9] it was 5.5 µg/mL (≈ 10 µM). For the same compound, in the data set on Hepacivirus hominis [6], the inhibition entry is “Active”. For the same compound, the inhibition result with Hepacivirus hominis [7] and with Hepacivirus hominis [11] was “inactive” each time. Also, the “Selectivity Index” value in data set [10] was found to be 9.9.
As for `CCCCCCCCCCCCCCCCCCNc1nc(=O)c2ncn([C@@H]3O[C@H](CO)[C@@H](O)[C@H]3O)c2c(=O)[nH]1`, the Activity with Hepatitis C virus [3] is 9%; in data set [8] it was “Non-toxic”; in the data set with Huh-7, 98%. Also, the values for the IC50 (with Hepatitis C virus [5]; in data set [9]) were 16 µM and 6 µg/mL (≈ 10.6 µM), respectively. In addition, the inhibition entry in the data set with Hepacivirus hominis [6] was “Active”. Also, the inhibition result in the data set on Hepacivirus hominis [7] and in the data set with Hepacivirus hominis [11] was “inactive” in each case. Also, the “Selectivity Index” value in data set [10] was found to be 10.89.
`CCCCCCCCCCNc1nc(=O)c2ncn([C@@H]3C[C@H](O)[C@@H](CO)O3)c2c(=O)[nH]1`: the inhibition result in the data set with Hepacivirus hominis [1] and in the data set on Hepacivirus hominis [2] was “inactive” throughout.
For the compound `CCCCCCCCNc1nc(=O)c2ncn([C@@H]3O[C@H](CO)[C@@H](O)[C@H]3O)c2c(=O)[nH]1`, the inhibition entry in the data set with Hepacivirus hominis [1] and in the data set on Hepacivirus hominis [2] was “inactive” throughout.
Regarding `CCCCCCCCNc1nc(=O)c2ncn([C@@H]3C[C@H](O)[C@@H](CO)O3)c2c(=O)[nH]1`, the inhibition entry with Hepacivirus hominis [1] and in the data set with Hepacivirus hominis [2] was “inactive” in each case.
Take `CCCCCCCCCCCCCCCCNc1nc(=O)c2ncn([C@@H]3C[C@H](O)[C@@H](CO)O3)c2c(=O)[nH]1`: the inhibition result with Hepacivirus hominis [1] and with Hepacivirus hominis [2] was “inactive” throughout.
With `CCCCCCCCCCCCCCCCNc1nc(=O)c2ncn([C@@H]3O[C@H](CO)[C@@H](O)[C@H]3O)c2c(=O)[nH]1`, the inhibition entry in the data set with Hepacivirus hominis [1] and in the data set with Hepacivirus hominis [2] was “inactive” in each case.
For `CCCCCCCCCCCCNc1nc(=O)c2ncn([C@@H]3O[C@H](CO)[C@@H](O)[C@H]3O)c2c(=O)[nH]1`, the inhibition entry in the data set on Hepacivirus hominis [1] and in the data set on Hepacivirus hominis [2] was “inactive” each time.
On to `CCCCCCCCCCCCCCNc1nc(=O)c2ncn([C@@H]3C[C@H](O)[C@@H](CO)O3)c2c(=O)[nH]1`, for which the inhibition result in the data set on Hepacivirus hominis [1] and in the data set on Hepacivirus hominis [2] was “inactive” in each case.
Take `NC(=O)c1ncn([C@@H]2O[C@H](CO)[C@@H](O)[C@H]2O)n1` [RIBAVIRIN]: the Activity is given as 89% with Hepatitis C virus [3] and 12% with Huh-7. For the same compound, the “Selectivity Index” value in data set [10] amounted to 0.14.
